Assay results from patent publication US6943164B2, “Pharmaceutical solutions of levosimendan” (Orion Corporation, priority 1999, dated 2005).
In brackets after ≈: the same amount, converted by molar mass.

How the values were obtained:
pKa of levosimendan = assay type: physicochemical
Experimental: (§1) At room temperature the solubility of levosimendan in phosphate buffer is 0.4 mg/ml (pH 7.4), 0.03 mg/ml (pH 6) and 0.02 mg/ml (pH 2). Thus, the water solubility of levosimendan decreases quite sharply when pH is lowered below neutral. […] Such solutions are chemically and physically stable over an extended period of time and, therefore, they are particularly suitable for pharmaceutical use.

[1] = Solubility of levosimendan in phosphate buffer at room temperature; assay type: physicochemical; details: aqueous buffer
Experimental: as §1

Question: Which results are given for `CC1CC(=O)NN=C1c1ccc(NN=C(C#N)C#N)cc1` (single isomer, unassigned; (-)) [levosimendan, (−)-[[4-(1,4,5,6-tetrahydro-4-methyl-6-oxo-3-pyridazinyl)phenyl]hydrazono]propanedinitrile]?
Answer: pKa (pKa of levosimendan): 6.26; solubility ([1]; pH 2): 20 µg/mL (≈ 71.4 µM); solubility ([1]; pH 6): 30 µg/mL (≈ 107 µM); solubility ([1]; pH 7.4): 400 µg/mL (≈ 1430 µM)
